The values below come from patent US8431596B2 (Cancer Research Technology Limited, priority 2007, dated 2013).

The target of this assay is T1, AXL (human catalytic domain) (Homo sapiens, UniProt P30530).
T1 construct: purchased Upstate Ltd. 14-512
T1 sequence (P30530 473-894): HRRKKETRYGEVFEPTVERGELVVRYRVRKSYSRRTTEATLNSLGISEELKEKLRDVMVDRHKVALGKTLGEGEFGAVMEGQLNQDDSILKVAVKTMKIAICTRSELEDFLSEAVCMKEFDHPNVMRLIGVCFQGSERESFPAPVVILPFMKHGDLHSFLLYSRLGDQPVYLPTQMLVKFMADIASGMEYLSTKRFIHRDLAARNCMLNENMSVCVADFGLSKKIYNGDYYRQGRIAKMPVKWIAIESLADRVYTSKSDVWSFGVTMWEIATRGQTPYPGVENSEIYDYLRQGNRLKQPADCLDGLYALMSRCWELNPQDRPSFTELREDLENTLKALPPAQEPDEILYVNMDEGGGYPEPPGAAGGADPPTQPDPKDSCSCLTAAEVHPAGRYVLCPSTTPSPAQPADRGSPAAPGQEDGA
Put plainly: AXL (human catalytic domain) Enzyme Activity Assay (IMAP fluorescence polarisation). The assay is classed as biochemical. On the procedure:
Biological Methods AXL (human catalytic domain) Enzyme Activity Assay Reagents
Kinase Assay Reaction Buffer: This consisted of 20 mM HEPES pH 7.0, 10 mM MgCl2, 1 mM DTT, […], 0.01% Triton X100 (v/v), and 0.01% BSA (w/v). All buffer components were purchased from Sigma-Aldrich at reagent grade or higher.
Kinase: Recombinant AXL isoform 1 (aa473-894 corresponding to Genbank Accession Number NP 068713) at 2 mg/mL (20.8 μM) was purchased from Upstate Ltd. (Product code 14-512, lot #28164U). The enzyme was stored at −80° C. and a working stock was prepared to a concentration of 30 nM by diluting 20.8 μM stock 1:693 in cold (4° C.) 1× Reaction Buffer. Final enzyme concentration in the assay was 15 nM.
Substrate: Fluorescein labelled CSK-tide 5FAM-[…]-NH2 was obtained from Molecular Devices (Product code R7270) and used at a working concentration of 200 nM by diluting the 100 μM stock 1:500 in 1× Reaction Buffer in a mix with the enzyme. A negative control (lacking enzyme) was prepared at the same concentrations. Final substrate concentration in the assay was 100 nM.
ATP: Supplied by Sigma (product code A-7699). A 100 mM ATP stock was prepared in […] and used at a working concentration of 375 μM by diluting the 100 mM stock 1:266.6 in Reaction Buffer. Final ATP concentration in the assay was 150 μM; this concentration represents the KM.ATP for this enzyme calculated in this assay.
IMAP Reagents: IMAP screening express kit was obtained from Molecular Devices (product code R8127). The binding reagent was gently re-suspended before diluting by 1:1000 in buffer (Binding Buffer is supplied as a 5× stock and so was diluted with water prior to use—this assay used 40% buffer A and 60% buffer B) and then vortexed before addition to wells. The binding reagent was used at a final dilution of 1:1333.
1 μL samples of test compounds in 10% DMSO/water were added to “test” wells by dry-spotting using a Matrix Platemate Plus. 5 μL Kinase/Substrate in Reaction Buffer were added to columns 1-22 of a Corning black low binding 384 well #6754 (90 μL volume) microplate to give 12 nM and 100 nM reaction concentration respectively. 5 μL substrate in Reaction Buffer was added to columns 23 and 24 to give 100 nM reaction concentration. 4 μL ATP in Reaction Buffer was added to all wells to give 150 μM reaction concentration. The reaction mixture was then incubated at room temperature for 60 minutes. The incubation period was followed by the addition of 20 μL IMAP Binding Reagent in Binding Buffer to all wells. The IMAP reaction detection was further incubated at room temperature overnight. The FP on a Tecan Ultra Plate reader was recorded as a single read at Ex485 Em535.
Percentage inhibition was calculated based on activity of the test sample minus the average values in the blank wells relative to the average values measured in control wells minus the average values in the blank wells.
IC50 values were calculated from 10 point dose sigmoid ‘dose-response’ curves using XIfit software (IDBS Inc, USA). Data were fitted to a 4 parameter logistic model/sigmoidal dose response defined by the following equation:
[formula] where: • A=fit minimum (locked to 0); • B=fit maximum (locked to 100); • C=fit midpoint (pre-fit to 1); and • D=slope at linear portion of curve, hillslope (pre-fit to 0.1).
The value for C represents the IC50 of the test compound.

The mark [1] stands for this setting: further data set (WW-001 through WW-169, XX-001 through XX-469, YY-001 through YY-016, ZZ-001 through ZZ-003), 150 μM ATP.
Setting [2] is: first data set, recombinant AXL isoform 1 aa473-894, 150 μM ATP.

`Cn1nccc1-c1ccc(-c2cccc3nc(Nc4ccc(OCCN5CCCC5)cc4)nn23)cc1` [XX-189] gave an IC50 under setting [1] of 100 to 1000 nM.
The same measure, in the same setting: under `FC(F)(F)c1ccc(-c2nccc3nc(Nc4ccc(OCCN5CCCC5)cc4)nn23)cc1` [YY-013] stands 100 to 1000 nM; under `c1ccc(COc2cccc(-c3cccc4nc(Nc5ccc(OCCN6CCCC6)cc5)nn34)c2)cc1` [XX-278], 100 to 1000 nM; under `CCN(CC)CCOc1cc(Nc2nc3cccc(-c4ccc(OC)cc4)n3n2)cc(F)c1F` [XX-418], 100 to 1000 nM.
The same measure, in the same setting: under `O=S(=O)(c1cccc(Cl)c1)n1cc(-c2cccc3nc(Nc4ccc(OCCN5CCCC5)cc4)nn23)cn1` [XX-285] stands 100 to 1000 nM.
On to `CC[C@@H](COc1ccc(Nc2nc3cccc(-c4ccc(OC)cc4)n3n2)cc1)N1CCCC1` [XX-388], for which the half-inhibitory concentration (IC50) under setting [1] is ≤ 100 nM.
Consider `COc1ccc(-c2cccc3nc(Nc4ccc(OCCN(C)CCO)cc4)nn23)cc1` [XX-065], for which the IC50 runs as follows: under setting [2], < 1000 nM; under setting [1], ≤ 100 nM.
Consider `Cc1ccc(COc2cccc(-c3cccc4nc(Nc5ccc(OCCN6CCCC6)cc5)nn34)c2)cc1` [XX-457], for which the IC50 under setting [1] was 1000 to 10000 nM.
Turning to `CC(Sc1ccc(Nc2nc3cccc(-c4ccc5c(c4)OCCO5)n3n2)cc1)C(N)=O` (stereo not drawn) [XX-161], the IC50 under setting [1] was 100 to 1000 nM.
In the case of `c1coc(-c2cccc3nc(Nc4ccc(OCCN5CCCC5)cc4)nn23)c1` [XX-203], under setting [1], the IC50 fell in the range of 100 to 1000 nM.
Consider `CN(C)CCOc1ccc(Nc2nc3cccc(-c4ccc5c(c4)OCO5)n3n2)cc1` [XX-048], for which the IC50 is, setting by setting: under setting [2], < 1000 nM; under setting [1], 100 to 1000 nM.
Take `CCCn1cc(-c2cccc3nc(Nc4ccc(OCCN5CCCC5)cc4)nn23)cn1` [XX-318]: under setting [1], the IC50 is ≤ 100 nM.
In the case of `O=C(Nc1nc2cccc(-c3ccc(O)c(F)c3)n2n1)C1CC1` [WW-096], the IC50 was < 1000 nM under setting [2] and 100 to 1000 nM under setting [1].
Regarding `O=C(Nc1nc2cccc(-c3cnn(Cc4ccccc4)c3)n2n1)C1CC1` [WW-105], the IC50 was 1000 to 10000 nM under setting [2] and 1000 to 10000 nM under setting [1].
As for `COCc1ccc(-c2cccc3nc(NC(=O)C4CC4)nn23)cc1` [WW-016], the IC50 lay in the range of 1000 to 10000 nM under setting [2] and 1000 to 10000 nM under setting [1].
Take `COc1ccc(-c2cccc3nc(Nc4ccc(OCCCN)cc4)nn23)cc1` [XX-041, [4-(3-Amino-propoxy)-phenyl]-[5-(4-methoxy-phenyl)-[1,2,4]triazolo[1,5-a]pyridin-2-yl]-amine]: the IC50 under setting [2] was < 1000 nM and the IC50 under setting [1] lay within 100 to 1000 nM.
Under setting [1], `COc1ccc(-c2cccc3nc(Nc4ccc(OCCN5CCCC5)cc4)nn23)cc1F` [XX-240] displayed an IC50 of 100 to 1000 nM.
`COc1ccc(-c2cccc3nc(Nc4ccc(OCCNCc5ccccn5)cc4)nn23)cc1` [XX-029]: the IC50 was < 1000 nM under setting [2] and 100 to 1000 nM under setting [1].
For `Cc1ccc2sc(-c3cccc4nc(Nc5ccc(OCCN6CCCC6)cc5)nn34)cc2c1` [XX-214], the IC50 under setting [1] was 100 to 1000 nM.
For the compound `Clc1ccc(Cn2cc(-c3cccc4nc(Nc5ccc(OCCN6CCCC6)cc5)nn34)cn2)cc1` [XX-304], the IC50 under setting [1] is ≤ 100 nM.
For `O=C(Nc1nc2cccc(-c3ccc4c(c3)OCO4)n2n1)C1CC1` [WW-049], the IC50 was < 1000 nM under setting [2] and 100 to 1000 nM under setting [1].
Consider `c1cc(-c2ccc3c(c2)OCO3)n2nc(Nc3ccc(OCCN4CCCC4)cc3)nc2c1` [XX-021], for which the IC50 is < 1000 nM under setting [2] and ≤ 100 nM under setting [1].
In the case of `c1cc(NCc2ccco2)cc(-c2cccc3nc(Nc4ccc(OCCN5CCCC5)cc4)nn23)c1` [XX-257], the IC50 under setting [1] was 100 to 1000 nM.
Turning to `COc1ccc(-c2cccc3nc(Nc4ccc(N5CCNCC5)cc4)nn23)cc1` [XX-023, [5-(4-Methoxy-phenyl)-[1,2,4]triazolo[1,5-a]pyridin-2-yl]-(4-piperazin-1-yl-phenyl)-amine], the IC50 was < 1000 nM under setting [2] and ≤ 100 nM under setting [1].
As for `Cc1noc(C)c1S(=O)(=O)n1cc(-c2cccc3nc(Nc4ccc(OCCN5CCCC5)cc4)nn23)cn1` [XX-385], the half-maximal inhibitory concentration (IC50) under setting [1] was in the range of 100 to 1000 nM.
Turning to `COc1cccc(-c2cccc3nc(Nc4ccc(OCCN5CCCC5)cc4)nn23)c1` [XX-150], the IC50 under setting [1] was 1000 to 10000 nM.
Regarding `Clc1cccc(SCCn2cc(-c3cccc4nc(Nc5ccc(OCCN6CCCC6)cc5)nn34)cn2)c1` [XX-431], under setting [1], the IC50 fell in the range of 100 to 1000 nM.
`CCN(CC)CCOc1ccc(Nc2nc3cccc(-c4ccc(OC)cc4)n3n2)cc1F` [XX-412] registered an IC50 under setting [1] of 1000 to 10000 nM.
As for `NCC(=O)Nc1ccc(-c2cccc3nc(NC(=O)C4CC4)nn23)cc1` [WW-155, Cyclopropanecarboxylic acid {5-[4-(2-amino-acetylamino)-phenyl]-[1,2,4]triazolo[1,5-a]pyridin-2-yl}-amide], the IC50 is, setting by setting: under setting [2], 1000 to 10000 nM; under setting [1], 1000 to 10000 nM.
`NC(=O)Cn1cc(-c2cccc3nc(Nc4ccc(OCCN5CCCC5)cc4)nn23)cn1` [XX-342] showed an IC50 under setting [1] of 1000 to 10000 nM.
As to `O=S(=O)(c1ccccc1Cl)n1cc(-c2cccc3nc(Nc4ccc(OCCN5CCCC5)cc4)nn23)cn1` [XX-378], the IC50 under setting [1] is ≤ 100 nM.
For the compound `Cc1ccccc1-c1cccc2nc(Nc3ccc(OCCN4CCCC4)cc3)nn12` [XX-212], the IC50 under setting [1] lay within 1000 to 10000 nM.
As for `CN(C)CC(C)(C)Oc1ccc(Nc2nc3cccc(-c4ccc5c(c4)OCCO5)n3n2)cc1` [XX-126], the half-maximal inhibitory concentration (IC50) under setting [1] was in the range of 100 to 1000 nM.
As to `O=C(Nc1nc2cccc(-c3cccc(Cl)c3)n2n1)C1CC1` [WW-004, Cyclopropanecarboxylic acid [5-(3-chloro-phenyl)-[1,2,4]triazolo[1,5-a]pyridin-2-yl]-amide], the IC50 under setting [2] was 1000 to 10000 nM and the concentration for half-maximal inhibition (IC50) under setting [1] was 1000 to 10000 nM.
Regarding `CCCCNc1cccc(-c2cccc3nc(Nc4ccc(OCCN5CCCC5)cc4)nn23)c1` [XX-399], the IC50 under setting [1] fell in the range of 100 to 1000 nM.
Still for that read-out and setting: in the case of `Cc1cccc(Cn2cc(-c3cccc4nc(Nc5ccc(OCCN6CCCC6)cc5)nn34)cn2)c1` [XX-290] it was ≤ 100 nM.
As for `O=C(Nc1nc2cccc(-c3ccc4[nH]ccc4c3)n2n1)C1CC1` [WW-018], the IC50 reads like this: under setting [2], < 1000 nM; under setting [1], 100 to 1000 nM.
As for `CCS(=O)(=O)n1cc(-c2cccc3nc(NC(=O)C4CC4)nn23)cn1` [WW-147, Cyclopropanecarboxylic acid [5-(1-ethanesulfonyl-1H-pyrazol-4-yl)-[1,2,4]triazolo[1,5-a]pyridin-2-yl]-amide], the IC50 is, setting by setting: under setting [2], 1000 to 10000 nM; under setting [1], 1000 to 10000 nM.
Under setting [1], `COc1ccc(-c2cccc3nc(Nc4ccc(OC[C@H](c5ccccc5)N5CCCC5)cc4)nn23)cc1` [XX-413] came in with an IC50 of 100 to 1000 nM.
Same read-out and setting: in the case of `CCN(CC)CCOc1cccc(Nc2nc3ccnc(-c4ccc5c(c4)OCCO5)n3n2)c1` [YY-009] it was 100 to 1000 nM.
The same measure, in the same setting: in the case of `c1cc(-c2ccncc2)n2nc(Nc3ccc(OCCN4CCCC4)cc3)nc2c1` [XX-219] it was 1000 to 10000 nM; in that of `c1ccc(-c2cc(CNc3cccc(-c4cccc5nc(Nc6ccc(OCCN7CCCC7)cc6)nn45)c3)no2)cc1` [XX-445], 100 to 1000 nM.
As for `COc1cc(-c2cccc3nc(NC(=O)C4CC4)nn23)ccc1O` [WW-093], the IC50 under setting [2] was in the range of 1000 to 10000 nM and the IC50 under setting [1] was in the range of 1000 to 10000 nM.
Take `CCOc1ccc(-c2cccc3nc(NC(=O)C4CC4)nn23)cc1` [WW-035]: the IC50 was < 1000 nM under setting [2] and 100 to 1000 nM under setting [1].
